Measured values reported in ChEMBL document CHEMBL4507293 (2021).

Assays:
[1] = target: Protein kinase C iota type (Homo sapiens) (UniProt P41743); details: Compound concentration 100.0 nM
[2] = target: Serine/threonine-protein kinase 25 (Homo sapiens) (UniProt O00506); details: Compound concentration 100.0 nM
[3] = target: SRSF protein kinase 3 (Homo sapiens) (UniProt Q9UPE1); details: Compound concentration 100.0 nM
[4] = target: Myosin light chain kinase 2, skeletal/cardiac muscle (Homo sapiens) (UniProt Q9H1R3); details: Compound concentration 100.0 nM
[5] = target: Serine/threonine-protein kinase MAK (Homo sapiens) (UniProt P20794); details: Compound concentration 100.0 nM
[6] = target: Ribosomal protein S6 kinase beta-1 (Homo sapiens) (UniProt P23443); details: Compound concentration 100.0 nM
[7] = target: Serine/threonine-protein kinase STK11 (Homo sapiens) (UniProt Q15831); details: Compound concentration 100.0 nM
Sequence of Serine/threonine-protein kinase STK11 (Homo sapiens) (Q15831 whole entry): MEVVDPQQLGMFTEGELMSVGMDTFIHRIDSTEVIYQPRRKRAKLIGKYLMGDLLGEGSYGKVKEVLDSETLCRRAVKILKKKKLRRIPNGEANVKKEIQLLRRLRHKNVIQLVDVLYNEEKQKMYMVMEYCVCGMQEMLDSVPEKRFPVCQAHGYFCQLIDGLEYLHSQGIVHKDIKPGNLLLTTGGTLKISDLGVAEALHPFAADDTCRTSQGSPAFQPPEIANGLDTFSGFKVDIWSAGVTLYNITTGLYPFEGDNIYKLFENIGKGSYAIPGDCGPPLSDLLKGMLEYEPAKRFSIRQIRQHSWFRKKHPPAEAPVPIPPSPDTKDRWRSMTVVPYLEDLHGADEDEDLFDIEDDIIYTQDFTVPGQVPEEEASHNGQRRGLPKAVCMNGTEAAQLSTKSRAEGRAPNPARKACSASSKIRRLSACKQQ

[8] = target: RAC-gamma serine/threonine-protein kinase (Homo sapiens) (UniProt Q9Y243); details: Compound concentration 100.0 nM
[9] = target: Protein kinase C delta type (Homo sapiens) (UniProt Q05655); details: Compound concentration 100.0 nM
[10] = target: D(4) dopamine receptor (Homo sapiens) (UniProt P21917); details: Compound concentration 10.0 uM
[11] = tested on: Epidermal growth factor receptor (Homo sapiens), P00533 [UNDEFINED MUTATION]; details: Compound concentration 100.0 nM
Sequence of Epidermal growth factor receptor (Homo sapiens), P00533 [UNDEFINED MUTATION] (P00533 whole entry, looked up, change not shown): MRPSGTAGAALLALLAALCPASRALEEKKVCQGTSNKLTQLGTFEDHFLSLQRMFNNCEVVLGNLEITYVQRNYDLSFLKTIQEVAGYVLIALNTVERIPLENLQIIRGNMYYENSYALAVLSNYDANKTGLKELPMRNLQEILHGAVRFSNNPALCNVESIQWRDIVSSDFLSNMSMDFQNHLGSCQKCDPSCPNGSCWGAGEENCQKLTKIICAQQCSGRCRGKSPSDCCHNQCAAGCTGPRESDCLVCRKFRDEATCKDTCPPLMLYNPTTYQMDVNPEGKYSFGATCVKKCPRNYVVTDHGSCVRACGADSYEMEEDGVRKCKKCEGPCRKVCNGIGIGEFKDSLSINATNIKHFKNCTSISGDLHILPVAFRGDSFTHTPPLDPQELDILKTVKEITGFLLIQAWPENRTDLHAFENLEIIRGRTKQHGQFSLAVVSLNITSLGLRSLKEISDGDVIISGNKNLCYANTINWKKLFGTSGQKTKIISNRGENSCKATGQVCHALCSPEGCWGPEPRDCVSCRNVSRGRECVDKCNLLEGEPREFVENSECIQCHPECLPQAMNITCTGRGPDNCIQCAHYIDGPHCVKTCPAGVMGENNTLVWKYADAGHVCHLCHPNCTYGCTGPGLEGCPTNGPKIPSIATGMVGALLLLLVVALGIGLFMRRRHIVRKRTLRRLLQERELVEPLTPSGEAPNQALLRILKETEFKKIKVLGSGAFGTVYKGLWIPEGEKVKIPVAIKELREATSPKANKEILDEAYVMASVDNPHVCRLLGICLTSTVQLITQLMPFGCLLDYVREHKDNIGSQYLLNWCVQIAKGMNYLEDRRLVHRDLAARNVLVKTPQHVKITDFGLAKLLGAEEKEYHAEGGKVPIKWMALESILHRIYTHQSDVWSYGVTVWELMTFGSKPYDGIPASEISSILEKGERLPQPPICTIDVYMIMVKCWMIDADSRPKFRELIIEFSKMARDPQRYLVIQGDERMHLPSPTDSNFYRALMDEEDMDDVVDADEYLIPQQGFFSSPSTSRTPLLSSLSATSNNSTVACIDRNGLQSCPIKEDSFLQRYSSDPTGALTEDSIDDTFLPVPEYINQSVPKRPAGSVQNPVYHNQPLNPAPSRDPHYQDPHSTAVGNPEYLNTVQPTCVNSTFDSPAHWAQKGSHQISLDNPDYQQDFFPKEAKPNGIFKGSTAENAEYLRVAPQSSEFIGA

[12] = target: Inhibitor of nuclear factor kappa-B kinase subunit beta (Homo sapiens) (UniProt O14920); details: Compound concentration 100.0 nM
[13] = tested on: Receptor-type tyrosine-protein kinase FLT3 (Homo sapiens), P36888 [D835V]; details: Compound concentration 100.0 nM
[14] = target: NUAK family SNF1-like kinase 1 (Homo sapiens) (UniProt O60285); details: Compound concentration 100.0 nM
[15] = target: Phosphorylase b kinase gamma catalytic chain, skeletal muscle/heart isoform (Homo sapiens) (UniProt Q16816); details: Compound concentration 100.0 nM
[16] = target: Mitogen-activated protein kinase 12 (Homo sapiens) (UniProt P53778); details: Compound concentration 100.0 nM
[17] = target: Focal adhesion kinase 1 (Homo sapiens) (UniProt Q05397); details: Compound concentration 100.0 nM
[18] = target: Histamine H2 receptor (Homo sapiens) (UniProt P25021); details: Compound concentration 10.0 uM
[19] = target: Ribosomal protein S6 kinase alpha-3 (Homo sapiens) (UniProt P51812); details: Compound concentration 100.0 nM
Sequence of Ribosomal protein S6 kinase alpha-3 (Homo sapiens) (P51812 whole entry): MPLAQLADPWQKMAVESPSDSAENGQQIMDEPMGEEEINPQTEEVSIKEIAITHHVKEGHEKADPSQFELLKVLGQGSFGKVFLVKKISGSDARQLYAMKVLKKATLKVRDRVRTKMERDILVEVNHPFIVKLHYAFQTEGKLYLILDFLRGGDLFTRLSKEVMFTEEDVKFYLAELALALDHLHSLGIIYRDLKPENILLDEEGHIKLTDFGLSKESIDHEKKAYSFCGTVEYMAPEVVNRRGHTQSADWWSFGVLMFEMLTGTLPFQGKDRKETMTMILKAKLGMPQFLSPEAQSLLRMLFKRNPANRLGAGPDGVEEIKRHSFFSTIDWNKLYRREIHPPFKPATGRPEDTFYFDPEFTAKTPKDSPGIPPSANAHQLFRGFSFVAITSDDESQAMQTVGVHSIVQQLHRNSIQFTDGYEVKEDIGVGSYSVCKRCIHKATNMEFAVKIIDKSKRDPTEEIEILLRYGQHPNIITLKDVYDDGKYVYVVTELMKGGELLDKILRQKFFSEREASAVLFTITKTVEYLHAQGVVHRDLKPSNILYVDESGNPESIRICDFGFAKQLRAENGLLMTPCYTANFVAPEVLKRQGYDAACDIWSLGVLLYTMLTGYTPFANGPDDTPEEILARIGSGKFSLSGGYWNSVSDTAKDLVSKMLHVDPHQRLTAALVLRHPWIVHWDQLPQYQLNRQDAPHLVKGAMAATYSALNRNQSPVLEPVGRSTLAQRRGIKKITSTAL

[20] = target: Calcium-dependent protein kinase 1 (Plasmodium falciparum) (UniProt P62344); details: Compound concentration 100.0 nM
[21] = target: Mitogen-activated protein kinase 15 (Homo sapiens) (UniProt Q8TD08); details: Compound concentration 100.0 nM
Sequence of Mitogen-activated protein kinase 15 (Homo sapiens) (Q8TD08 whole entry): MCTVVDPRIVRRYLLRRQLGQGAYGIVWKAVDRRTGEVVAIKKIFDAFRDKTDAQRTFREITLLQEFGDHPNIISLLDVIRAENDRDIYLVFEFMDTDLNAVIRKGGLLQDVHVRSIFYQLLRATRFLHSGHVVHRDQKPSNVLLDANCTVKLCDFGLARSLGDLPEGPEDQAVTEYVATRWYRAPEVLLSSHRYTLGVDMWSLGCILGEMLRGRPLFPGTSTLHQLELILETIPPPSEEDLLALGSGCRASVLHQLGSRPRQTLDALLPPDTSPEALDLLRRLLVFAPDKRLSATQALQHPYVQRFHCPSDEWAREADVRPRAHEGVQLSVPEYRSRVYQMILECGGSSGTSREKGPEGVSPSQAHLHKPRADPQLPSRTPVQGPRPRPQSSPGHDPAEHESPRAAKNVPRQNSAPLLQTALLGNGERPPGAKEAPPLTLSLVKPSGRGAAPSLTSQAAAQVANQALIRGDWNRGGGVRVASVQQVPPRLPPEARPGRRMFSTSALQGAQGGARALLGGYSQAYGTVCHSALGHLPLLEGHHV

[22] = target: Serine/threonine-protein kinase ULK2 (Homo sapiens) (UniProt Q8IYT8); details: Compound concentration 100.0 nM
Sequence of Serine/threonine-protein kinase ULK2 (Homo sapiens) (Q8IYT8 whole entry): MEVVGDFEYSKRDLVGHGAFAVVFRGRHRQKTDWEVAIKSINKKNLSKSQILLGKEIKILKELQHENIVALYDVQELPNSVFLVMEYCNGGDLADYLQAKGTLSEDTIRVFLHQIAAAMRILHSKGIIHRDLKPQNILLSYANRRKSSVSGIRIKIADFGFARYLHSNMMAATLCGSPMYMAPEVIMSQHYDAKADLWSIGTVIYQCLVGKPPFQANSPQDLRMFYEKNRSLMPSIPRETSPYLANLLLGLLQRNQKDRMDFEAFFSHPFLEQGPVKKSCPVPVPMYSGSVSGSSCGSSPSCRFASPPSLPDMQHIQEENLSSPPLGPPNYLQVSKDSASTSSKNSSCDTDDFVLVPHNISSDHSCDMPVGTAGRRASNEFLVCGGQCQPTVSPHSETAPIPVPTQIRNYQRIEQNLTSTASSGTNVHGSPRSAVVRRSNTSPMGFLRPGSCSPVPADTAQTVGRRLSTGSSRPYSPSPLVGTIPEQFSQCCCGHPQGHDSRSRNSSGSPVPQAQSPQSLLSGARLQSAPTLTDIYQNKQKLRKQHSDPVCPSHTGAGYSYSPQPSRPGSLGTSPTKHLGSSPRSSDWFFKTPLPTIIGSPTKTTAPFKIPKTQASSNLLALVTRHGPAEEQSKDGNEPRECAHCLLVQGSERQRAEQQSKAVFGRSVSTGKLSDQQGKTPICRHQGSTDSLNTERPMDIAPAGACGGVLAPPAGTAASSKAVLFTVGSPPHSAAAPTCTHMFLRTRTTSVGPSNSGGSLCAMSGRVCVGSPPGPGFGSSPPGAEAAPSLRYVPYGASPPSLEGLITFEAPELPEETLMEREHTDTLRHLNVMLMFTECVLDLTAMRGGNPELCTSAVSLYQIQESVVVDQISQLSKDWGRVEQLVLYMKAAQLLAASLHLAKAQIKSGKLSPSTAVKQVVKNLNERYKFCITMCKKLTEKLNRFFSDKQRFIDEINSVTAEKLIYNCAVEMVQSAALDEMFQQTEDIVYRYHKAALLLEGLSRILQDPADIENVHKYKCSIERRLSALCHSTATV

[23] = target: Serine/threonine-protein kinase N1 (Homo sapiens) (UniProt Q16512); details: Compound concentration 100.0 nM
[24] = target: GABA-A receptor; anion channel (Rattus norvegicus) (UniProt O09028+P15431+P18506+P18508+P19969+P20236+P23574+P23576+P28471+P28473+P30191+P62813+P63079+P63138+Q91ZM7+Q9ES14); details: Compound concentration 10.0 uM
[25] = target: Serine/threonine-protein kinase PknB (Mycobacterium tuberculosis) (UniProt P9WI81); details: Compound concentration 100.0 nM
[26] = target: Mitogen-activated protein kinase 3 (Homo sapiens) (UniProt P27361); details: Compound concentration 100.0 nM
[27] = target: Serine/threonine-protein kinase Chk1 (Homo sapiens) (UniProt O14757); details: Compound concentration 100.0 nM
[28] = target: Maternal embryonic leucine zipper kinase (Homo sapiens) (UniProt Q14680); details: Compound concentration 100.0 nM
[29] = target: BDNF/NT-3 growth factors receptor (Homo sapiens) (UniProt Q16620); details: Compound concentration 100.0 nM
[30] = target: Casein kinase II subunit alpha (Homo sapiens) (UniProt P68400); details: Compound concentration 100.0 nM
[31] = target: Death-associated protein kinase 1 (Homo sapiens) (UniProt P53355); details: Compound concentration 100.0 nM
[32] = target: Epithelial discoidin domain-containing receptor 1 (Homo sapiens) (UniProt Q08345); details: Compound concentration 100.0 nM
[33] = target: Serine/threonine-protein kinase PAK 4 (Homo sapiens) (UniProt O96013); details: Compound concentration 100.0 nM
[34] = target: Cyclin-dependent kinase 14 (Homo sapiens) (UniProt O94921); details: Compound concentration 100.0 nM
[35] = target: Dual specificity mitogen-activated protein kinase kinase 6 (Homo sapiens) (UniProt P52564); details: Compound concentration 100.0 nM
Sequence of Dual specificity mitogen-activated protein kinase kinase 6 (Homo sapiens) (P52564 whole entry): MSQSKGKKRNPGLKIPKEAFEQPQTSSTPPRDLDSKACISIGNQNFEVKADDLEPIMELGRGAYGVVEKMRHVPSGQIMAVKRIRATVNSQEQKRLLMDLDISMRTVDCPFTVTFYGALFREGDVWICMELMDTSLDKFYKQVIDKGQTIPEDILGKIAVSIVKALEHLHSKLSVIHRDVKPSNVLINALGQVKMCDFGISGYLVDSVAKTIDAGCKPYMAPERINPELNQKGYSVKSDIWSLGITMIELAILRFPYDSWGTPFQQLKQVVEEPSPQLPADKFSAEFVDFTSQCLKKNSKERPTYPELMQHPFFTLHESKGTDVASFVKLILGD

[36] = target: Hepatocyte growth factor receptor (Homo sapiens) (UniProt P08581); details: Compound concentration 100.0 nM
[37] = target: Cyclin-dependent kinase 5 (Homo sapiens) (UniProt Q00535); details: Compound concentration 100.0 nM
[38] = target: D(3) dopamine receptor (Homo sapiens) (UniProt P35462); details: Compound concentration 10.0 uM
Sequence of D(3) dopamine receptor (Homo sapiens) (P35462 whole entry): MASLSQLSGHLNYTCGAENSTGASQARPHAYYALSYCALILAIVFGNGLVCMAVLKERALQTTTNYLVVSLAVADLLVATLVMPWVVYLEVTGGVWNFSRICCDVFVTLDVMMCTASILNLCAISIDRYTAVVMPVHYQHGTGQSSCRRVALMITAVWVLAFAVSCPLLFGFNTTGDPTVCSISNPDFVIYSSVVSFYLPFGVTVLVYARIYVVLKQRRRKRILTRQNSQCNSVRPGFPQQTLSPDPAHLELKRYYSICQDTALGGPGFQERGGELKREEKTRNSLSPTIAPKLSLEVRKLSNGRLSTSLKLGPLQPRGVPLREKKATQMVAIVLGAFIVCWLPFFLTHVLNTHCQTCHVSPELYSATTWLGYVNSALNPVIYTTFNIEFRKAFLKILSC

[39] = target: BMP-2-inducible protein kinase (Homo sapiens) (UniProt Q9NSY1); details: Compound concentration 100.0 nM
[40] = target: Serine/threonine-protein kinase N2 (Homo sapiens) (UniProt Q16513); details: Compound concentration 100.0 nM
[41] = target: Casein kinase II subunit alpha' (Homo sapiens) (UniProt P19784); details: Compound concentration 100.0 nM
Sequence of Casein kinase II subunit alpha' (Homo sapiens) (P19784 whole entry, looked up): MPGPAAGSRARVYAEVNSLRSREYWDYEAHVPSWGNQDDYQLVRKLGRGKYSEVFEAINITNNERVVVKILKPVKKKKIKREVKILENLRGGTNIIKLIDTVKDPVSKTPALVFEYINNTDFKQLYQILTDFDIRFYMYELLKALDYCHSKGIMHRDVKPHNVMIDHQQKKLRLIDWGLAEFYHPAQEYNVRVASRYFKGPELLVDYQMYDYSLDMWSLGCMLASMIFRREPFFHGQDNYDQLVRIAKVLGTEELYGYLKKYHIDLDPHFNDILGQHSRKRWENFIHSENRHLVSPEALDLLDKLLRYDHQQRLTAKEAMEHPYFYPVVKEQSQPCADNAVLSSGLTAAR

[42] = target: Inhibitor of nuclear factor kappa-B kinase subunit alpha (Homo sapiens) (UniProt O15111); details: Compound concentration 100.0 nM
[43] = tested on: Phosphatidylinositol 4,5-bisphosphate 3-kinase catalytic subunit alpha isoform (Homo sapiens), P42336 [C420R]; details: Compound concentration 100.0 nM
[44] = target: Serine/threonine-protein kinase BRSK1 (Homo sapiens) (UniProt Q8TDC3); details: Compound concentration 100.0 nM

**Q.** With `CC(C)CC(=O)N1CCc2nc(-c3ccc(Br)cc3)nc(N(C)Cc3ccccc3)c2C1` [THPP-1-NC] as the compound, how does the residual activity [1] read?
**A.** 100%

**Q.** What about the residual activity [2] of the same compound?
**A.** 100%

**Q.** What about the residual activity [3] of the same compound?
**A.** 79%

**Q.** And the residual activity [4]?
**A.** 96%

**Q.** And the residual activity [5]?
**A.** 99%

**Q.** What about the residual activity [6] of the same compound?
**A.** 100%

**Q.** What about the residual activity [7] of the same compound?
**A.** 100%

**Q.** What about the residual activity [8] of the same compound?
**A.** 64%

**Q.** What about the residual activity [9] of the same compound?
**A.** 100%

**Q.** And the inhibition [10]?
**A.** 7.93%

**Q.** What about the residual activity [11] of the same compound?
**A.** 100%

**Q.** What about the residual activity [12] of the same compound?
**A.** 100%

**Q.** What about the residual activity [13] of the same compound?
**A.** 95%

**Q.** What about the residual activity [14] of the same compound?
**A.** 100%

**Q.** What about the residual activity [15] of the same compound?
**A.** 100%

**Q.** And the residual activity [16]?
**A.** 79%

**Q.** And the residual activity [17]?
**A.** 92%

**Q.** What about the inhibition [18] of the same compound?
**A.** 3.39%

**Q.** And the residual activity [19]?
**A.** 94%

**Q.** What about the residual activity [20] of the same compound?
**A.** 100%

**Q.** What about the residual activity [21] of the same compound?
**A.** 100%

**Q.** And the residual activity [22]?
**A.** 89%

**Q.** What about the residual activity [23] of the same compound?
**A.** 100%

**Q.** What about the inhibition [24] of the same compound?
**A.** -4.66%

**Q.** What about the residual activity [25] of the same compound?
**A.** 97%

**Q.** What about the residual activity [26] of the same compound?
**A.** 88%

**Q.** And the residual activity [27]?
**A.** 100%

**Q.** What about the residual activity [28] of the same compound?
**A.** 67%

**Q.** And the residual activity [29]?
**A.** 100%

**Q.** And the residual activity [30]?
**A.** 100%

**Q.** What about the residual activity [31] of the same compound?
**A.** 100%

**Q.** And the residual activity [32]?
**A.** 100%

**Q.** What about the residual activity [33] of the same compound?
**A.** 100%

**Q.** And the residual activity [34]?
**A.** 100%

**Q.** And the residual activity [35]?
**A.** 100%

**Q.** What about the residual activity [36] of the same compound?
**A.** 99%

**Q.** And the residual activity [37]?
**A.** 100%

**Q.** And the inhibition [38]?
**A.** 5.44%

**Q.** What about the residual activity [39] of the same compound?
**A.** 99%

**Q.** And the residual activity [40]?
**A.** 80%

**Q.** What about the residual activity [41] of the same compound?
**A.** 88%

**Q.** What about the residual activity [42] of the same compound?
**A.** 100%

**Q.** What about the residual activity [43] of the same compound?
**A.** 87%

**Q.** And the residual activity [44]?
**A.** 100%

**Q.** Which results are given for `COCCOc1nc(-c2ccc(Cl)nc2)nc2c1CN(C(=O)c1ncn3ccccc13)CC2` [THPP-1]?
**A.** residual activity [1]: 100%; residual activity [2]: 100%; residual activity [3]: 66%; residual activity [4]: 94%; residual activity [5]: 100%; residual activity [6]: 100%; residual activity [7]: 100%; residual activity [8]: 47%; residual activity [9]: 100%; inhibition [10]: 15.7%; residual activity [11]: 80%; residual activity [12]: 100%; residual activity [13]: 100%; residual activity [14]: 100%; residual activity [15]: 100%; residual activity [16]: 72%; residual activity [17]: 99%; inhibition [18]: -0.24%; residual activity [19]: 100%; residual activity [20]: 100%; residual activity [21]: 100%; residual activity [22]: 100%; residual activity [23]: 100%; inhibition [24]: 15%; residual activity [25]: 86%; residual activity [26]: 89%; residual activity [27]: 100%; residual activity [28]: 65%; residual activity [29]: 100%; residual activity [30]: 99%; residual activity [31]: 100%; residual activity [32]: 100%; residual activity [33]: 100%; residual activity [34]: 100%; residual activity [35]: 100%; residual activity [36]: 100%; residual activity [37]: 100%; inhibition [38]: -6.15%; residual activity [39]: 90%; residual activity [40]: 55%; residual activity [41]: 100%; residual activity [42]: 100%; residual activity [43]: 95%; residual activity [44]: 100%
